Experimental data: publication PMC11148078, “Potent activity of polymyxin B is associated with long-lived super-stoichiometric accumulation mediated by weak-affinity binding to lipid A” (Nature Communications, 2024)
Entries after “also recorded” stand apart in the source; their conditions may differ. Bridge positions count the residues as written; N and C are the ends. Square brackets hold non-standard residues; d marks the D form. Peptide text beside a SMILES is read from it. * marks the point of attachment. ξ: configuration not given here. Hexanoyl(4ξ-Me) = CCC(C)CCC(=O)*; dOrn = NCCC[C@@H](N)C(=O)O; Orn = NCCC[C@H](N)C(=O)O

Columns and labels:
E. coli PmrA^G53E = type: cell-based
Method: (§1) Bacterial strains and plasmids are listed in SI Table S5. LB growth media was prepared according to manufacturer’s instructions and supplemented with 0.2% arabinose and carbenicillin (50 μg/mL) for the strains containing pBAD24-mcr1 plasmid. Cultures were started by inoculating 3 ml LB with 1–2 colonies from fresh overnight plates and grown at 37 °C until in log phase. Modified minimal inhibitory concentration (MIC) assays were performed in 96-well round bottom polystyrene plates (Corning) with a final volume of 100 µl in LB supplemented with tween-80 at 0.0005%. […] Polymyxin B sulfate (TCI Co. Ltd), polymyxin B nonapeptide (PMBN) (Sigma), and brevicidine (Genentech) were diluted directly in the assay plates. Bacteria were diluted in LB with tween-80 0.0005% and added to a final OD600 of 0.0005. Growth was measured via OD600 on a SpectraMax M5 plate reader after overnight static growth at 37 °C with humidity.

E. coli mcr1 = type: cell-based; details: pBAD-mcr-1
Method: as §1

S. aureus WT = type: cell-based; details: LB + 0.0005% tween-80, overnight 37 °C
Method: as §1

E. coli WT+rifampicin = test: Rifampicin potentiation / outer membrane permeability, wild-type E. coli; type: cell-based; details: rifampicin 1.56 µM; LB + 0.0005% tween-80, overnight 37 °C
Method: as §1

[1] = test system: E. coli PmrA^G53E+rifampicin; test: Rifampicin potentiation / outer membrane permeability, E. coli PmrA^G53E; type: cell-based
Method: as §1

E. coli mcr-1+rifampicin = test: Rifampicin potentiation / outer membrane permeability, E. coli mcr-1; type: cell-based
Method: as §1

wt-OMVs [2] = test: Single-cycle kinetic SPR binding to immobilized wt-OMVs; parameters: species or system E. coli; details: serial doubling injections, C1 chip
Method: (§2) Polymyxin B was covalently attached to a C1 chip (Series S Sensor Chip C1, Cytiva) using an amine coupling kit (Cytiva). Cartoon in Fig. 1A created with BioRender (biorender.com). Briefly, equal amounts of reagents N-hydroxysuccinimide and 1-ethyl-3-(3-dimethylaminopropyl) carbodiimide hydrochloride were mixed as per manufacturer’s instructions and immediately added to the gold chip surface for 2 min, washed with distilled deionized water, and dried. Sufficient polymyxin B (1 mM in 1 M HEPES buffer, pH 8) was added to cover the chip surface, incubated at room temperature for 1 h, washed as before, and then incubated with 1 M ethanolamine hydrochloride-NaOH, pH 8.5, for 1 min. The chip surface was washed with water, dried as previously described, immediately loaded into a Biacore S200, and primed with running buffer (described below) to equilibrate the system. C1 chips were used for multiple runs and discarded upon removal from the Biacore S200.
(§3) SCK C1-chip SPR experiments were performed in running buffer (Dulbecco’s phosphate-buffered salt solution 1x without calcium or magnesium (Fisher Scientific), pH 7.4, with 0.0005% tween-80 (Sigma) passed through a 0.2 µm filter) unless otherwise indicated. Inclusion of tween-80 prevented loss of polymyxin to the plastics[34] (also see Supplementary Information Methods). For experiments with brevicidine, which was suspended in DMSO, 0.125% DMSO was included in the running buffer. OMVs were diluted from frozen stocks to approximately 20–30 µg/ml protein in the OMV buffer. Capture of OMVs was performed at a low flow rate ([…]) for 300 s over the test channel(s) followed by a 300 s stabilization period. All subsequent steps were at a flow rate of […]. For single cycle kinetics, two-fold dilutions were injected over the channel(s) loaded with OMVs and a reference channel without OMVs for 30 s contact and 480 s dissociation. To regenerate chips, 0.5% SDS (desorb 1, Cytiva) was injected into all channels for 60 s at 30 µl/ml twice, with an extra buffer wash and four carry-over control steps to prevent residual SDS from disrupting the following cycle.
All single-cycle kinetic SPR traces shown were double-referenced (unless indicated) within the Biacore S200 Evaluation Software 1.0, exported as a.txt file, and imported (decimated) into GraphPad Prism (version 9.3.1 for Mac, GraphPad Software, San Diego, CA). For clarity, in some cases individual outlier data points (at buffer transitions) were removed when this would not change the overall data or conclusions.

[3] = test system: resistant-OMVs (E. coli PmrA^G53E); test: Single-cycle kinetic SPR binding to immobilized resistant-OMVs; details: serial doubling injections, C1 chip
Method: as §2
as §3, with “To regenerate chips, 0.5% SDS (desorb 1, Cytiva) was injected into all channels for 60 s at 30 µl/ml twice, with an extra buffer wash and four carry-over control steps to prevent residual SDS from disrupting the following cycle.” left out

wt-OMVs [4] = test: SPR chaser analysis (residence time), wt-OMVs; type: binding, E. coli; details: 25 °C, n≥3, (SD)
Method: (§4) The off-rate of the tightly bound fraction was estimated using a chaser analysis, where OMVs were pre-saturated with polymyxin B and then re-saturated after an extended time interval (Supplementary Information Fig. S11A). […] A t1/2 of >6 h was determined for polymyxin B binding to OMVs at both 25 and 37 °C (SI Table S3). The t1/2 of brevicidine, also measured by chaser analysis, was approximately 1 h on both wt-OMVs and polymyxin-resistant-OMVs (SI Table S3).
(§5) Binding and kinetic analysis of SPR-OMV assays […]
To determine the residence time of the test compound with OMVs, the ‘chaser method’ was used because it accounts for drift that can occur in the system over long incubation times 13. OMVs were loaded onto the chip as described above then 5 µM polymyxin B was injected using the ‘low-sample consumption’ setting for 300 sec ([…] flow rate), followed by a 240 sec dissociation time. A second dose of 5 µM polymyxin B was then injected for 60 sec ([…]) to assure saturation followed by a 2 h dissociation time prior to the ‘chaser’, a 60 sec pulse of 5 µM polymyxin B. The RUs of associated polymyxin B were determined 120 sec after the start of the dissociation. The change in RUs from before dosing to after the second dose, and the change in RUs from prior to the ‘chaser’ dose and 120 sec after the start of its dissociation were used to calculate the fraction occupancy of the material and the residence time/half-life as described 13. […]
PMBN) to LPS for 20 min. […]
20 sec with a Solarus plasma cleaner (Gatan). Grids were blotted and plunge-frozen by Vitrobot (ThermoFisher Scientific, Waltham, MA) at 4°C, 100% relative humidity, blot force 7, and a 3 sec […]
TEM data collection was performed using a Titan Krios G3i (ThermoFisher Scientific, Waltham, MA) operating at 300 kV equipped with a BioQuantum energy filter and a K3 Summit direct electron detector operating at a nominal magnification of 105,000x (0.838 Å/pixel), an energy slit width of 20 eV, defocus range -1 to -3 μm, 3-sec exposure time, 60 frames per movie, a total electron fluence of ~64 e/Å2. Microscope and camera automation was accomplished by SerialEM14, and image processing (motion correction & CTF estimation) was performed using […]
Standard cryo-EM image processing software and methods were incompatible with the vesicle images, so a blinded visual scoring method for image analysis was used. Approximately 50 images from each sample and treatment condition that each contained at least one OMV (pooled in a single folder and blinded) were scored for number of vesicles touching (0-10+), and if the vesicle membranes appeared disrupted or abnormal. Sampling was not completely random as images of vesicles could not be obtained from areas with significant clumping. Images shown in […]

resistant-OMVs = test: SPR chaser analysis (residence time), resistant-OMVs; type: binding, E. coli
Method: as §4, §5
To determine the residence time of the test compound with OMVs, the ‘chaser method’ was used because it accounts for drift that can occur in the system over long incubation times 13. […] A second dose of 5 µM polymyxin B was then injected for 60 sec ([…]) to assure saturation followed by a 2 h dissociation time prior to the ‘chaser’, a 60 sec pulse of 5 µM polymyxin B. The RUs of associated polymyxin B were determined 120 sec after the start of the dissociation. […]
Standard cryo-EM image processing software and methods were incompatible with the vesicle images, so a blinded visual scoring method for image analysis was used. Approximately 50 images from each sample and treatment condition that each contained at least one OMV (pooled in a single folder and blinded) were scored for number of vesicles touching (0-10+), and if the vesicle membranes appeared disrupted or abnormal. […]

CCC(C)CCC(=O)N[C@H](CC(N)=O)C(=O)N[C@H](Cc1ccc(O)cc1)C(=O)N[C@H](Cc1c[nH]c2ccccc12)C(=O)N[C@H](CCCN)C(=O)N[C@@H](CCCN)C(=O)NCC(=O)N[C@H](CCCN)C(=O)N[C@@H](Cc1c[nH]c2ccccc12)C(=O)N[C@@H]1C(=O)N[C@@H]([C@@H](C)CC)C(=O)NCC(=O)N[C@@H](CO)C(=O)O[C@@H]1C (stereo partly drawn) [Brevicidine] ({Hexanoyl(4ξ-Me)}-[dN][dY][dW][dOrn][Orn]G[dOrn]WTIGS; ester 9-C; N-terminus assumed)
antibacterial activity (E. coli PmrA^G53E): exhibits antibacterial activity against strains with polymyxin-resistant lipid A modifications
antibacterial activity (E. coli mcr1): exhibits antibacterial activity against strains with polymyxin-resistant lipid A modifications
MIC (S. aureus WT): > 40 µM
MIC in presence of rifampicin (E. coli WT+rifampicin): 0.078 µM
MIC in presence of rifampicin [1]: 0.078 µM
MIC in presence of rifampicin (E. coli mcr-1+rifampicin): 0.078 µM
SPR binding profile (wt-OMVs [2]): accumulation of a tightly bound species and a superimposed saw-tooth profile
SPR binding profile [3]: indistinguishable from its binding to wt-OMVs; also recorded: identical response to wt-OMVs and resistant-OMVs
t1/2 (wt-OMVs [4]): 1.09 (0.20) h
t1/2 (resistant-OMVs; 25 °C, OMVs from PmrA^G53E and pmcr1 strains (n=2 each), (SD)): 1.17 (0.57) h
t1/2 of bound complex (resistant-OMVs; polymyxin-resistant-OMVs): approximately 1 h

Colistin
SPR binding profile (wt-OMVs [2]): dominated by the accumulation of tightly bound polymyxin B and a superimposed saw-tooth profile associated with transient binding
